Test results taken from patent publication US20150359812A1, “PROPHYLACTIC/THERAPEUTIC AGENT FOR DRY EYE” (priority 2012, published 2015).

Legend:
[1] = system: radical oxygen species in lacrimal gland tissue; assay: Inhibitory action to radical oxygen species using isolated lacrimal glands of mice (DCFH-DA fluorescence); assay type: cell-based; conditions: for inhibition of radical oxygen by isolated delphinidin glycosides, FIG. 6: lacrimal gland cell suspension, DCFH-DA; for inhibition of radical oxygen in lacrimal cells, FIG. 12: comparison of delphinidin glycosides
Protocol: The action of the maqui berry extract to radical oxygen species in lacrimal gland tissue was evaluated using mice […].
The evaluation of the inhibitory action to radical oxygen species was done in the following way.
An isolated lacrimal gland was placed in a test tube, and 25 mg tissue/mL of cold phosphate-buffered saline (PBS) was added. After that, zirconia beads were added to the lacrimal gland that is to be crushed by a bead grinder. Then, 50 μL each of cell suspension was dispensed. Then, the maqui berry extract of Working Example 1 (1, 10 μg/mL) was added to the cell suspension, and then DCFH-DA solution as the radical oxygen series was added to make the final level of concentration at 75 μm. Then, after 60 minutes of incubation at 37 degrees Celsius, the cells were washed in PBS. The fluorescence-plate reader measured the intensity of fluorescence at (X485/528).
As a Comparative Example, the same test was done on lutein 10 μg/mL (compare and contrast).
Also, as a Comparative Example, the same test was done on the bilberry extract (Indena) and on the black currant extract (Tama Biochemical Co., Ltd.).
Furthermore, the same tests were done on the following examples.
Regarding Fr. 2: delphinidin-3,5-diglucoside (Working Example 3), Fr. 6: delphinidin-3-glucoside (Working Example 5) and delphinidin-3-rutinoside (Comparative Example 1: substance contained in cassis), the same evaluation as in Test Example 2 was done.
Regarding Fr. 6 delphinidin-3-glucoside (Working Example 5) and the other anthocyanin series (petunidin-3-glucoside, peonidin-3-glucoside, malvidin-3-glucoside and cyaniding-3-glucoside), the evaluation of Test Example 2 was done.

[2] = system: lacrimal cells; assay: Absorption test of anthocyanins into lacrimal cells (HPLC); assay type: in vitro ADME; conditions: 100 μM, 30 minutes at 37 degrees Celsius, compared with D3G and D3R
Protocol: The test was done in the following way. Each anthocyanin (of delphinidin-3,5-diglucoside, delphinidin-3-O-glucoside and delphinidin-3-Orutinoside) was added to the lachrymal-cells suspension at the final concentration of 100 μM.
After that, the suspension was incubated for 30 minutes at 37 degrees Celsius. Then, the cells were washed and suspended again in the buffer. Thus, the amount of anthocyanin was analyzed by HPLC. The analysis is as follows.
The condition of HPLC is as follows:
Column: YMC UltraHT Pro C18 dia.2.0×100 mm
Column temperature: 30 degrees Celsius
Eluent: A=0.3% TFA aqueous solution, B=acetonitrile
Flow rate: 0.3 mL/min, Injection volume: 50 μL
Quantitative limit: 2 ng/mL (cyaniding-3-O-glucoside)

| Structure (SMILES) | inhibition of radical oxygen by isolated delphinidin glycosides, FIG. 6 [1] | inhibition of radical oxygen in lacrimal cells, FIG. 12 [1] | action in inhibiting radical oxygen in lacrimal cells compared to other anthocyanins, FIG. 13 ([1]; comparison with petunidin-, peonidin-, malvidin- and cyanidin-3-glucoside) | amount of absorption of anthocyanin into the lacrimal cells, FIG. 14 [2] |
| --- | --- | --- | --- | --- |
| OC[C@H]1O[C@@H](Oc2cc3c(O)cc(O)cc3[o+]c2-c2cc(O)c(O)c(O)c2)[C@H](O[C@@H]2OC[C@@H](O)[C@H](O)[C@H]2O)[C@@H](O)[C@@H]1O [Fr. 5, Delphinidin-3-sambubioside] | significantly inhibited | – | – | – |
| OC[C@H]1O[C@@H](Oc2cc3c(O)cc(O)cc3[o+]c2-c2cc(O)c(O)c(O)c2)[C@H](O)[C@@H](O)[C@@H]1O [Fr. 6, Delphinidin-3-glucoside] | significantly inhibited | inhibited | – | – |
| OC[C@H]1O[C@@H](Oc2cc3c(O[C@@H]4O[C@H](CO)[C@@H](O)[C@H](O)[C@H]4O)cc(O)cc3[o+]c2-c2cc(O)c(O)c(O)c2)[C@H](O)[C@@H](O)[C@@H]1O [Fr. 2, Delphinidin-3,5-diglucoside] | significantly inhibited | excellent inhibitory action | especially excellent action | absorbed by the lacrimal cells more |
| CC1O[C@@H](OC[C@H]2OC(Oc3cc4c(O)cc(O)cc4[o+]c3-c3cc(O)c(O)c(O)c3)[C@H](O)C(O)C2O)C(O)C(O)[C@H]1O (stereo partly drawn) [delphinidin-3-rutinoside, reference compound] | – | did not inhibit | – | – |
| OC[C@H]1O[C@@H](Oc2cc(O)cc3[o+]c(-c4cc(O)c(O)c(O)c4)c(O[C@@H]4O[C@H](CO)[C@@H](O)[C@H](O)[C@H]4O[C@@H]4OC[C@@H](O)[C@H](O)[C@H]4O)cc23)[C@H](O)[C@@H](O)[C@@H]1O [Fr. 1, Delphinidin-3sambubioside-5-glucoside] | significantly inhibited | – | – | – |
